These results are taken from patent US20180055370A1, “PHOTOACOUSTIC APPARATUS” (CANON KABUSHIKI KAISHA, priority 2015, published 2018).

This data set can be described thus: Change over time of contrast agent concentration in circulating blood (blood sampling after administration). It counts as in vivo, nude mice. To be noted: threshold value of linearity R^2≧0.8. The source says: FIG. 2 is a graph illustrating contrast agent concentration change information obtained from a plurality of blood samplings of nude mice to which a contrast agent has been administered. The vertical axis represents the concentration of coloring material in blood, and the horizontal axis denotes the time elapsed since administration. The graph depicts specifically the change of the concentration after administration of contrast agent in an amount of 20 nanomoles of coloring material equivalent, to the caudal vein of the nude mice. […]
In a case where the contrast agent is administered into the circulating blood as one shot, the contrast agent concentration in the circulating blood decreases exponentially due to clearance with the passage of time, as illustrated in FIG. 2. […] When no signal is acquired within an appropriate lapse of time, therefore, the contrast agent in the circulating blood may in some instances fail to be quantified successfully. […] On the other hand, once a prolonged period of time has elapsed since administration, the contrast agent concentration in the circulating blood decreases, and becomes readily influenced by the sensitivity and/or measurement variability of the measuring instrument. […]

Regarding `CC1(C)C(/C=C/C=C/C=C/C=C2\N(CCCCS(=O)(=O)O)c3ccc4ccccc4c3C2(C)C)=[N+](CCCCS(=O)(=O)[O-])c2ccc3ccccc3c21` [ICG, indocyanine green], the “TIME [hr] (measurement time range over which concentration in blood decreases linearly on a semi-logarithmic axis)” value is reported as 0.08~0.5 hr.
